This note sets out measurements from patent US20200276150A1, “PARENTERAL FORMULATIONS OF MACROLIDE ANTIBIOTICS” (Tetard, Inc., priority 2010, published 2020).

Data set [1] is described as follows: HPLC assay and impurity levels, autoclaved and non-autoclaved samples (Example 7). In kind it is physicochemical. As to conditions: standard, no condition given. As for the experimental part: EXAMPLE 7. Characterization of Unbuffered Formulation C Solutions with Nitrogen […] and with the Inclusion of an Antioxidant with or without a Chelating Agent. Development studies were conducted using Formulation C, Example C, and its corresponding placebo formulation. The table below details the composition of Formulation C active formulation and corresponding placebo. The solutions above were prepared by first dissolving the stabilizers in the vehicle (60 mM Tartaric acid) which was pre-prepared in nitrogen sparged water. Once dissolved, the CEM-101 API was then added slowly and allowed to mix until a complete solution was achieved. Formulations prepared were then filled into vials, crimped with an aluminium cap containing a PTFE septum and then autoclaved. Each vial was nitrogen purged prior to crimping. HPLC analyses were performed on both autoclaved and non-autoclaved samples. Refer to results in the table below for summary data on assay and impurities.

Data set [2] can be described thus: HPLC assay and total impurities of formulations (Example 6). In kind it is physicochemical. As for the experimental part:
Turbid samples were centrifuged prior to analysis. Total Impurities are assessed by % HPLC peak area.

With `CC[C@H]1OC(=O)[C@@](C)(F)C(=O)[C@H](C)[C@@H](O[C@@H]2O[C@H](C)C[C@H](N(C)C)[C@H]2O)[C@@](C)(OC)C[C@@H](C)C(=O)[C@H](C)[C@H]2N(CCCCn3cc(-c4cccc(N)c4)nn3)C(=O)O[C@]12C` [STD 0.5 mg/mL], the “Total Impurities” value in data set [1] came to 1.867.
On to `CC[C@H]1OC(=O)[C@@](C)(F)C(=O)[C@H](C)[C@@H](O[C@@H]2O[C@H](C)C[C@H](N(C)C)[C@H]2O)[C@@](C)(OC)C[C@@H](C)C(=O)[C@H](C)[C@H]2N(CCCCn3cc(-c4cccc(N)c4)nn3)C(=O)O[C@]12C` [Preformulation], for which the “Total Impurities” value in data set [2] was 2.34 % HPLC peak area.
